According to the supplement of paper PMC4862054:

How the values were obtained:
Settings in all cases: incubation time: 72 h
BT-549 [1] = assay: drug sensitivity score (DSS), CellTiter-Glo (DSS (AUC-based score)); higher = stronger drug effect (viability inhibition or cytotoxicity); extreme values may be limits of the assay
Procedure, shortened: (§1)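 Plates with 384 wells held compound at 5 concentrations in 10-fold steps over a 10,000-fold range specific to each compound. Breast cancer cell lines were added in 20 µl suspension and incubated 72 h, then read for CellTox Green and CellTiter-Glo signals, with each plate normalised to 0.1 % DMSO and a positive kill control. The drug sensitivity score is based on the area under the fitted dose-response curve.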

MCF-10A = assay: as above
Procedure, shortened: as §1

MFM-223 [2] = assay: as above
Procedure, shortened: as §1

HCC1937 [3] = assay: as above
Procedure, shortened: as §1

MDA-MB-436 [4] = assay: as above
Procedure, shortened: as §1

CAL-51 [5] = assay: normalised viability (% of control), CellTiter-Blue; higher = more viable cells (about 100 = DMSO control)
Experimental: (§2)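 DSRT, CellTiter-Blue viability, 72 h incubation. Signal is normalised to DMSO and benzethonium chloride controls. Value is the normalised response at dose 3.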

CAL-120 [6] = assay: as above
Experimental: as §2

HCC1599 [7] = assay: as above
Experimental: as §2

MFM-223 [8] = assay: as above
Experimental: as §2

MDA-MB-453 [9] = assay: as above
Experimental: as §2

MDA-MB-231 [10] = assay: as above
Experimental: as §2

Hs578T [11] = assay: as above
Experimental: as §2

MDA-MB-436 [12] = assay: as above
Experimental: as §2

CAL-51 [13] = assay: normalised viability (% of control), CellTiter-Blue; higher = more viable cells (about 100 = DMSO control); remark: listed apart in the source
Procedure, shortened: (§3)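 The reported figure is normalised viability at a single listed concentration of the series. Breast cancer cell lines (20 µl suspension) went onto 384-well plates holding compound in 5 µl medium for 72 h. CellTiter-Blue (2.5 µl, 2 h, 37 °C) was read by fluorescence at 560/590 nm, and each plate was scaled to vehicle at 100 and a positive kill control at 0.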

CAL-85-1 = assay: as above
Procedure, shortened: as §3

CAL-148 = assay: as above
Procedure, shortened: as §3

HDQ-P1 = assay: as above
Procedure, shortened: as §3

CAL-120 [14] = assay: as above; remark: listed apart in the source
Procedure, shortened: as §3

BT-549 [15] = assay: as above
Procedure, shortened: as §3

HCC1599 [16] = assay: as above; remark: listed apart in the source
Procedure, shortened: as §3

DU-4475 = assay: as above
Procedure, shortened: as §3

MFM-223 [17] = assay: as above; remark: listed apart in the source
Procedure, shortened: as §3

SK-BR-3 = assay: as above
Procedure, shortened: as §3

MDA-MB-453 [18] = assay: as above; remark: listed apart in the source
Procedure, shortened: as §3

BT-474 = assay: as above
Procedure, shortened: as §3

HCC1937 [19] = assay: as above
Procedure, shortened: as §3

MDA-MB-231 [20] = assay: as above; remark: listed apart in the source
Procedure, shortened: as §3

MDA-MB-468 = assay: as above
Procedure, shortened: as §3

Hs578T [21] = assay: as above; remark: listed apart in the source
Procedure, shortened: as §3

HCC1143 = assay: as above
Procedure, shortened: as §3

MDA-MB-436 [22] = assay: as above; remark: listed apart in the source
Procedure, shortened: as §3

C[C@]12CC[C@H](O)CC1=CC[C@@H]1[C@@H]2CC[C@]2(C)C(c3cccnc3)=CC[C@@H]12 [Abiraterone]
drug sensitivity score (BT-549 [1]): 0
drug sensitivity score (MCF-10A): 0
drug sensitivity score (MFM-223 [2]): 0
drug sensitivity score (HCC1937 [3]): 0
drug sensitivity score (MDA-MB-436 [4]): 0
normalised viability (CAL-51 [5]; 5 nM): 106%
normalised viability (CAL-120 [6]; 50 nM): 87.6%
normalised viability (HCC1599 [7]; 50 nM): 102%
normalised viability (MFM-223 [8]; 50 nM): 98%
normalised viability (MDA-MB-453 [9]; 5 nM): 91.6%
normalised viability (MDA-MB-231 [10]; 50 nM): 95.6%
normalised viability (Hs578T [11]; 50 nM): 91.7%
normalised viability (MDA-MB-436 [12]; 50 nM): 126%
normalised viability (CAL-51 [13]; 1.5 nM): 104%
normalised viability (CAL-85-1; 1.5 nM): 93.2%
normalised viability (CAL-148; 1.5 nM): 91.5%
normalised viability (HDQ-P1; 1.5 nM): 104%
normalised viability (CAL-120 [14]; 5 nM): 81%
normalised viability (BT-549 [15]; 5 nM): 99.7%
normalised viability (HCC1599 [16]; 5 nM): 104%
normalised viability (DU-4475; 1.5 nM): 84.6%
normalised viability (MFM-223 [17]; 5 nM): 102%
normalised viability (SK-BR-3; 5 nM): 97.7%
normalised viability (MDA-MB-453 [18]; 1.5 nM): 104%
normalised viability (BT-474; 5 nM): 116%
normalised viability (HCC1937 [19]; 5 nM): 110%
normalised viability (MDA-MB-231 [20]; 5 nM): 86.8%
normalised viability (MDA-MB-468; 5 nM): 105%
normalised viability (Hs578T [21]; 5 nM): 101%
normalised viability (HCC1143; 5 nM): 67.2%
normalised viability (MDA-MB-436 [22]; 5 nM): 101%

CNNCc1ccc(C(=O)NC(C)C)cc1 [Procarbazine]
drug sensitivity score (BT-549 [1]): 0
drug sensitivity score (MCF-10A): 0
drug sensitivity score (MFM-223 [2]): 0
drug sensitivity score (HCC1937 [3]): 0
drug sensitivity score (MDA-MB-436 [4]): 0
normalised viability (CAL-51 [5]; 10 nM): 109%
normalised viability (CAL-120 [6]; 100 nM): 106%
normalised viability (HCC1599 [7]; 100 nM): 94.8%
normalised viability (MFM-223 [8]; 100 nM): 92.8%
normalised viability (MDA-MB-453 [9]; 10 nM): 105%
normalised viability (MDA-MB-231 [10]; 100 nM): 105%
normalised viability (Hs578T [11]; 100 nM): 104%
normalised viability (MDA-MB-436 [12]; 100 nM): 97%
normalised viability (CAL-51 [13]; 3 nM): 107%
normalised viability (CAL-85-1; 3 nM): 95.6%
normalised viability (CAL-148; 3 nM): 103%
normalised viability (HDQ-P1; 3 nM): 146%
normalised viability (CAL-120 [14]; 10 nM): 104%
normalised viability (BT-549 [15]; 10 nM): 111%
normalised viability (HCC1599 [16]; 10 nM): 97.4%
normalised viability (DU-4475; 3 nM): 90.7%
normalised viability (MFM-223 [17]; 10 nM): 98.4%
normalised viability (SK-BR-3; 10 nM): 110%
normalised viability (MDA-MB-453 [18]; 3 nM): 114%
normalised viability (BT-474; 10 nM): 106%
normalised viability (HCC1937 [19]; 10 nM): 87%
normalised viability (MDA-MB-231 [20]; 10 nM): 109%
normalised viability (MDA-MB-468; 10 nM): 105%
normalised viability (Hs578T [21]; 10 nM): 105%
normalised viability (HCC1143; 10 nM): 93.1%
normalised viability (MDA-MB-436 [22]; 10 nM): 97%

O=C1NC(=O)[C@@H](c2cn3c4c(cccc24)CCC3)[C@@H]1c1c[nH]c2ccccc12 [Tivantinib]
drug sensitivity score (BT-549 [1]): 2.94
drug sensitivity score (MCF-10A): 1.72
drug sensitivity score (MFM-223 [2]): 0
drug sensitivity score (HCC1937 [3]): 0
drug sensitivity score (MDA-MB-436 [4]): 2.69
normalised viability (CAL-51 [5]; 1 nM): 106%
normalised viability (CAL-120 [6]; 10 nM): 90.8%
normalised viability (HCC1599 [7]; 10 nM): 98.4%
normalised viability (MFM-223 [8]; 10 nM): 105%
normalised viability (MDA-MB-453 [9]; 1 nM): 108%
normalised viability (MDA-MB-231 [10]; 10 nM): 116%
normalised viability (Hs578T [11]; 10 nM): 86.5%
normalised viability (MDA-MB-436 [12]; 10 nM): 101%
normalised viability (CAL-51 [13]; 0.3 nM): 104%
normalised viability (CAL-85-1; 0.3 nM): 90.2%
normalised viability (CAL-148; 0.3 nM): 97.9%
normalised viability (HDQ-P1; 0.3 nM): 104%
normalised viability (CAL-120 [14]; 1 nM): 93.4%
normalised viability (BT-549 [15]; 1 nM): 107%
normalised viability (HCC1599 [16]; 1 nM): 115%
normalised viability (DU-4475; 0.3 nM): 107%
normalised viability (MFM-223 [17]; 1 nM): 83.8%
normalised viability (SK-BR-3; 1 nM): 105%
normalised viability (MDA-MB-453 [18]; 0.3 nM): 122%
normalised viability (BT-474; 1 nM): 127%
normalised viability (HCC1937 [19]; 1 nM): 67.8%
normalised viability (MDA-MB-231 [20]; 1 nM): 106%
normalised viability (MDA-MB-468; 1 nM): 112%
normalised viability (Hs578T [21]; 1 nM): 133%
normalised viability (HCC1143; 1 nM): 90.7%
normalised viability (MDA-MB-436 [22]; 1 nM): 97.7%

Cn1cncc1[C@@](N)(c1ccc(Cl)cc1)c1ccc2c(c1)c(-c1cccc(Cl)c1)cc(=O)n2C [Tipifarnib]
drug sensitivity score (BT-549 [1]): 5.49
drug sensitivity score (MCF-10A): 2.13
drug sensitivity score (MFM-223 [2]): 6.28
drug sensitivity score (HCC1937 [3]): 6.28
drug sensitivity score (MDA-MB-436 [4]): 10.2
normalised viability (CAL-51 [5]; 10 nM): 99.9%
normalised viability (CAL-120 [6]; 100 nM): 57%
normalised viability (HCC1599 [7]; 100 nM): 72.7%
normalised viability (MFM-223 [8]; 100 nM): 70.3%
normalised viability (MDA-MB-453 [9]; 10 nM): 93%
normalised viability (MDA-MB-231 [10]; 100 nM): 71.8%
normalised viability (Hs578T [11]; 100 nM): 70.1%
normalised viability (MDA-MB-436 [12]; 100 nM): 87.9%
normalised viability (CAL-51 [13]; 3 nM): 108%
normalised viability (CAL-85-1; 3 nM): 81.4%
normalised viability (CAL-148; 3 nM): 92.2%
normalised viability (HDQ-P1; 3 nM): 74.6%
normalised viability (CAL-120 [14]; 10 nM): 77.6%
normalised viability (BT-549 [15]; 10 nM): 86.3%
normalised viability (HCC1599 [16]; 10 nM): 92.7%
normalised viability (DU-4475; 3 nM): 99.4%
normalised viability (MFM-223 [17]; 10 nM): 84.6%
normalised viability (SK-BR-3; 10 nM): 91%
normalised viability (MDA-MB-453 [18]; 3 nM): 102%
normalised viability (BT-474; 10 nM): 109%
normalised viability (HCC1937 [19]; 10 nM): 95.6%
normalised viability (MDA-MB-231 [20]; 10 nM): 82.2%
normalised viability (MDA-MB-468; 10 nM): 96.8%
normalised viability (Hs578T [21]; 10 nM): 88.9%
normalised viability (HCC1143; 10 nM): 71.9%
normalised viability (MDA-MB-436 [22]; 10 nM): 94.1%

COc1ccccc1S(=O)(=O)Nc1ccc2c(c1)CN(C)C(=O)N2 [PFI-1]
drug sensitivity score (BT-549 [1]): 5.52
drug sensitivity score (MCF-10A): 1.98
drug sensitivity score (MFM-223 [2]): 1.13
drug sensitivity score (HCC1937 [3]): 0
drug sensitivity score (MDA-MB-436 [4]): 1.33

CC(C)(C#N)c1cc(Cn2cncn2)cc(C(C)(C)C#N)c1 [Anastrozole]
drug sensitivity score (BT-549 [1]): 0
drug sensitivity score (MCF-10A): 0
drug sensitivity score (MFM-223 [2]): 0
drug sensitivity score (HCC1937 [3]): 0
drug sensitivity score (MDA-MB-436 [4]): 0
normalised viability (CAL-51 [5]; 10 nM): 109%
normalised viability (CAL-120 [6]; 100 nM): 88.5%
normalised viability (HCC1599 [7]; 100 nM): 102%
normalised viability (MFM-223 [8]; 100 nM): 94.2%
normalised viability (MDA-MB-453 [9]; 10 nM): 97.7%
normalised viability (MDA-MB-231 [10]; 100 nM): 92.7%
normalised viability (Hs578T [11]; 100 nM): 88.4%
normalised viability (MDA-MB-436 [12]; 100 nM): 96%
normalised viability (CAL-51 [13]; 3 nM): 112%
normalised viability (CAL-85-1; 3 nM): 93.4%
normalised viability (CAL-148; 3 nM): 93.3%
normalised viability (HDQ-P1; 3 nM): 102%
normalised viability (CAL-120 [14]; 10 nM): 84.3%
normalised viability (BT-549 [15]; 10 nM): 94%
normalised viability (HCC1599 [16]; 10 nM): 98%
normalised viability (DU-4475; 3 nM): 106%
normalised viability (MFM-223 [17]; 10 nM): 96.9%
normalised viability (SK-BR-3; 10 nM): 95.1%
normalised viability (MDA-MB-453 [18]; 3 nM): 104%
normalised viability (BT-474; 10 nM): 110%
normalised viability (HCC1937 [19]; 10 nM): 90.3%
normalised viability (MDA-MB-231 [20]; 10 nM): 96.3%
normalised viability (MDA-MB-468; 10 nM): 102%
normalised viability (Hs578T [21]; 10 nM): 99.4%
normalised viability (HCC1143; 10 nM): 73.5%
normalised viability (MDA-MB-436 [22]; 10 nM): 109%
